Values belong to the molecule of their own block, whether it stands above or below them. Calls of active or inactive are those of the source. The calls are words filed in the database; no cut-off is given here.
Legend:
Muscle tissue [1] = experiment: Biodistribution in muscle of Kunming mouse at 1 uCi, iv after 60 mins by gamma counting; format: ADME, organism-based; conditions: in vivo, 1 h
Muscle tissue [2] = experiment: Biodistribution in muscle of Kunming mouse at 1 uCi, iv after 120 mins by gamma counting; format: ADME, organism-based; conditions: in vivo, 2 h
Muscle tissue [3] = experiment: Biodistribution in muscle of Kunming mouse at 1 uCi, iv after 240 mins by gamma counting; format: ADME, organism-based; conditions: in vivo, 4 h
[4] = Partition coefficient, log D in n-octanol/0.05 M phosphate buffer at pH 7.4; format: physicochemical
Plasma = experiment: Metabolic stability in mouse plasma assessed as deiodination after 2 hrs by HPLC analysis; format: ADME, cell-free
Blood [5] = experiment: Biodistribution in blood of Kunming mouse at 1 uCi, iv after 30 mins by gamma counting; format: ADME, organism-based; conditions: in vivo, 0.5 h
Blood [6] = experiment: Biodistribution in blood of Kunming mouse at 1 uCi, iv after 2 mins by gamma counting; format: ADME, organism-based; conditions: in vivo
Blood [7] = experiment: Biodistribution in blood of Kunming mouse at 1 uCi, iv after 60 mins by gamma counting; format: ADME, organism-based; conditions: in vivo, 1 h
Blood [8] = experiment: Biodistribution in blood of Kunming mouse at 1 uCi, iv after 120 mins by gamma counting; format: ADME, organism-based; conditions: in vivo, 2 h
Blood [9] = experiment: Biodistribution in blood of Kunming mouse at 1 uCi, iv after 240 mins by gamma counting; format: ADME, organism-based; conditions: in vivo, 4 h
Brain [10] = experiment: Biodistribution in brain of Kunming mouse at 1 uCi, iv after 2 mins by gamma counting; format: ADME, organism-based; conditions: in vivo
Brain [11] = experiment: Biodistribution in brain of Kunming mouse at 1 uCi, iv after 30 mins by gamma counting; format: ADME, organism-based; conditions: in vivo, 0.5 h
Brain [12] = experiment: Biodistribution in brain of Kunming mouse at 1 uCi, iv after 60 mins by gamma counting; format: ADME, organism-based; conditions: in vivo, 1 h
Brain [13] = experiment: Biodistribution in brain of Kunming mouse at 1 uCi, iv after 120 mins by gamma counting; format: ADME, organism-based; conditions: in vivo, 2 h
Brain [14] = experiment: Biodistribution in brain of Kunming mouse at 1 uCi, iv after 240 mins by gamma counting; format: ADME, organism-based; conditions: in vivo, 4 h
Heart [15] = experiment: Biodistribution in heart of Kunming mouse at 1 uCi, iv after 2 mins by gamma counting; format: ADME, organism-based; conditions: in vivo
Heart [16] = experiment: Biodistribution in heart of Kunming mouse at 1 uCi, iv after 30 mins by gamma counting; format: ADME, organism-based; conditions: in vivo, 0.5 h
Heart [17] = experiment: Biodistribution in heart of Kunming mouse at 1 uCi, iv after 60 mins by gamma counting; format: ADME, organism-based; conditions: in vivo, 1 h
Heart [18] = experiment: Biodistribution in heart of Kunming mouse at 1 uCi, iv after 120 mins by gamma counting; format: ADME, organism-based; conditions: in vivo, 2 h
Heart [19] = experiment: Biodistribution in heart of Kunming mouse at 1 uCi, iv after 240 mins by gamma counting; format: ADME, organism-based; conditions: in vivo, 4 h
Liver [20] = experiment: Biodistribution in liver of Kunming mouse at 1 uCi, iv after 2 mins by gamma counting; format: ADME, organism-based; conditions: in vivo
Liver [21] = experiment: Biodistribution in liver of Kunming mouse at 1 uCi, iv after 30 mins by gamma counting; format: ADME, organism-based; conditions: in vivo, 0.5 h
Liver [22] = experiment: Biodistribution in liver of Kunming mouse at 1 uCi, iv after 60 mins by gamma counting; format: ADME, organism-based; conditions: in vivo, 1 h
Liver [23] = experiment: Biodistribution in liver of Kunming mouse at 1 uCi, iv after 120 mins by gamma counting; format: ADME, organism-based; conditions: in vivo, 2 h
Liver [24] = experiment: Biodistribution in liver of Kunming mouse at 1 uCi, iv after 240 mins by gamma counting; format: ADME, organism-based; conditions: in vivo, 4 h
Spleen [25] = experiment: Biodistribution in spleen of Kunming mouse at 1 uCi, iv after 2 mins by gamma counting; format: ADME, organism-based; conditions: in vivo
Spleen [26] = experiment: Biodistribution in spleen of Kunming mouse at 1 uCi, iv after 30 mins by gamma counting; format: ADME, organism-based; conditions: in vivo, 0.5 h
Spleen [27] = experiment: Biodistribution in spleen of Kunming mouse at 1 uCi, iv after 60 mins by gamma counting; format: ADME, organism-based; conditions: in vivo, 1 h
Spleen [28] = experiment: Biodistribution in spleen of Kunming mouse at 1 uCi, iv after 120 mins by gamma counting; format: ADME, organism-based; conditions: in vivo, 2 h
Spleen [29] = experiment: Biodistribution in spleen of Kunming mouse at 1 uCi, iv after 240 mins by gamma counting; format: ADME, organism-based; conditions: in vivo, 4 h
Lung [30] = experiment: Biodistribution in lung of Kunming mouse at 1 uCi, iv after 2 mins by gamma counting; format: ADME, organism-based; conditions: in vivo
Lung [31] = experiment: Biodistribution in lung of Kunming mouse at 1 uCi, iv after 30 mins by gamma counting; format: ADME, organism-based; conditions: in vivo, 0.5 h
Lung [32] = experiment: Biodistribution in lung of Kunming mouse at 1 uCi, iv after 60 mins by gamma counting; format: ADME, organism-based; conditions: in vivo, 1 h
Lung [33] = experiment: Biodistribution in lung of Kunming mouse at 1 uCi, iv after 120 mins by gamma counting; format: ADME, organism-based; conditions: in vivo, 2 h
Lung [34] = experiment: Biodistribution in lung of Kunming mouse at 1 uCi, iv after 240 mins by gamma counting; format: ADME, organism-based; conditions: in vivo, 4 h
Kidney [35] = experiment: Biodistribution in kidney of Kunming mouse at 1 uCi, iv after 2 mins by gamma counting; format: ADME, organism-based; conditions: in vivo
Kidney [36] = experiment: Biodistribution in kidney of Kunming mouse at 1 uCi, iv after 30 mins by gamma counting; format: ADME, organism-based; conditions: in vivo, 0.5 h
Kidney [37] = experiment: Biodistribution in kidney of Kunming mouse at 1 uCi, iv after 60 mins by gamma counting; format: ADME, organism-based; conditions: in vivo, 1 h
Kidney [38] = experiment: Biodistribution in kidney of Kunming mouse at 1 uCi, iv after 120 mins by gamma counting; format: ADME, organism-based; conditions: in vivo, 2 h
Kidney [39] = experiment: Biodistribution in kidney of Kunming mouse at 1 uCi, iv after 240 mins by gamma counting; format: ADME, organism-based; conditions: in vivo, 4 h
Stomach [40] = experiment: Biodistribution in stomach of Kunming mouse at 1 uCi, iv after 2 mins by gamma counting measured per organ; format: ADME, organism-based; conditions: in vivo
Stomach [41] = experiment: Biodistribution in stomach of Kunming mouse at 1 uCi, iv after 30 mins by gamma counting measured per organ; format: ADME, organism-based; conditions: in vivo, 0.5 h
Stomach [42] = experiment: Biodistribution in stomach of Kunming mouse at 1 uCi, iv after 60 mins by gamma counting measured per organ; format: ADME, organism-based; conditions: in vivo, 1 h
Stomach [43] = experiment: Biodistribution in stomach of Kunming mouse at 1 uCi, iv after 120 mins by gamma counting measured per organ; format: ADME, organism-based; conditions: in vivo, 2 h
Stomach [44] = experiment: Biodistribution in stomach of Kunming mouse at 1 uCi, iv after 240 mins by gamma counting measured per organ; format: ADME, organism-based; conditions: in vivo, 4 h
Muscle tissue [45] = experiment: Biodistribution in muscle of Kunming mouse at 1 uCi, iv after 2 mins by gamma counting; format: ADME, organism-based; conditions: in vivo
Muscle tissue [46] = experiment: Biodistribution in muscle of Kunming mouse at 1 uCi, iv after 30 mins by gamma counting; format: ADME, organism-based; conditions: in vivo, 0.5 h
Mus musculus [47] = species: Mus musculus; experiment: Binding affinity to beta amyloid plaques in brain sections of TgC57 transgenic mouse transfected with APP and PS1 double mutant after 10 mins using thioflavin-S stain; format: tissue-based
Mus musculus [48] = species: Mus musculus; experiment: Binding affinity to beta amyloid plaques in brain sections of TgC57 transgenic mouse transfected with APP and PS1 double mutant after 30 mins by autoradiography; format: tissue-based; conditions: tested as the 125I-labelled form
Mus musculus [49] = species: Mus musculus; experiment: Binding affinity to beta amyloid plaques in brain sections of TgC57 transgenic mouse transfected with APP and PS1 double mutant after 30 mins by autoradiography in the presence of thioflavin-T; format: tissue-based; conditions: tested as the 125I-labelled form
[50] = Displacement of [125I]TZDM from amyloid beta (1 to 40) aggregates after 2 hrs
[51] = Displacement of [125I]TZDM from amyloid beta (1 to 42) aggregates after 2 hrs

Drug uptake (Muscle tissue [1]): 3.56 % ID/g | Drug uptake (Muscle tissue [2]): 2.46 % ID/g | Drug uptake (Muscle tissue [3]): 1.95 % ID/g | logD [4]: 3.27 | Stability (Plasma): Stable | Drug uptake (Blood [5]): 6.55 % ID/g | Drug uptake (Blood [6]): 23.34 % ID/g | Drug uptake (Blood [7]): 6.58 % ID/g | Drug uptake (Blood [8]): 6.62 % ID/g | Drug uptake (Blood [9]): 5.05 % ID/g | Drug uptake (Brain [10]): 0.87 % ID/g | Drug uptake (Brain [11]): 0.64 % ID/g | Drug uptake (Brain [12]): 0.77 % ID/g | Drug uptake (Brain [13]): 0.68 % ID/g | Drug uptake (Brain [14]): 0.53 % ID/g | Drug uptake (Heart [15]): 16.13 % ID/g | Drug uptake (Heart [16]): 5.94 % ID/g | Drug uptake (Heart [17]): 4.74 % ID/g | Drug uptake (Heart [18]): 3.48 % ID/g | Drug uptake (Heart [19]): 2.5 % ID/g | Drug uptake (Liver [20]): 35.25 % ID/g | Drug uptake (Liver [21]): 6.98 % ID/g | Drug uptake (Liver [22]): 5.76 % ID/g | Drug uptake (Liver [23]): 4.33 % ID/g | Drug uptake (Liver [24]): 3.23 % ID/g | Drug uptake (Spleen [25]): 19.04 % ID/g | Drug uptake (Spleen [26]): 7.11 % ID/g | Drug uptake (Spleen [27]): 6.24 % ID/g | Drug uptake (Spleen [28]): 4.92 % ID/g | Drug uptake (Spleen [29]): 4.49 % ID/g | Drug uptake (Lung [30]): 43.6 % ID/g | Drug uptake (Lung [31]): 10.28 % ID/g | Drug uptake (Lung [32]): 8.64 % ID/g | Drug uptake (Lung [33]): 7.7 % ID/g | Drug uptake (Lung [34]): 6.12 % ID/g | Drug uptake (Kidney [35]): 14.3 % ID/g | Drug uptake (Kidney [36]): 6.49 % ID/g | Drug uptake (Kidney [37]): 6.28 % ID/g | Drug uptake (Kidney [38]): 5.67 % ID/g | Drug uptake (Kidney [39]): 4.53 % ID/g | Drug uptake (Stomach [40]): 1.31 %ID | Drug uptake (Stomach [41]): 15.84 %ID | Drug uptake (Stomach [42]): 20.24 %ID | Drug uptake (Stomach [43]): 33.95 %ID | Drug uptake (Stomach [44]): 19.37 %ID | Drug uptake (Muscle tissue [45]): 2.73 % ID/g | Drug uptake (Muscle tissue [46]): 3.42 % ID/g
Compound: COc1ccc2nc(-c3ccc(-c4ccc([125I])s4)s3)sc2c1

Activity (Mus musculus [47]): Active | Activity (Mus musculus [48]): Active | Activity (Mus musculus [49]): inactive | Ki [50]: 0.61 nM | Ki [51]: 0.11 nM
Compound: COc1ccc2nc(-c3ccc(-c4ccc(I)s4)s3)sc2c1

Ki [50]: 2.2 nM | Ki [51]: 0.9 nM
Compound: CN(C)c1ccc(-c2nc3ccc(I)cc3s2)cc1

Reference: ChEMBL document CHEMBL1156337, “Synthesis and evaluation of novel benzothiazole derivatives based on the bithiophene structure as potential radiotracers for beta-amyloid plaques in Alzheimer's disease” (Bioorg Med Chem, 2010)
